Results: patent publication US9505741B2, “Prolylhydroxylase inhibitors and methods of use” (CORNELL UNIVERSITY, priority 2010, dated 2016)

Columns and labels:
[1] = tested on: HIF ODD-luc reporter (HIF PHD-controlled stability); assay: HTS with cell-based HIF ODD-luciferase reporter (SH-SY5Y-ODD-luc cells); set-up: species or system human; conditions: three hours, SH-SY5Y-ODD-luc
Description: For HTS, a cell-based reporter system was employed. The cell-based reporter system was generated by fusing HIF-1a oxygen degradable domain (ODD) to luciferase (Safran M. et al., PNAS, 2006, 103, 105-110), which represents a cell-based capture assay monitored by the consumption of the luciferase-labeled HIF substrate under the conditions more physiological than in vitro test tubes. In accord with their structure activity relationship in reporter assay, the best “hits” stabilize HIF1, upregulate known HIF target genes in a human neuronal line, and exert neuroprotective effects in established model of oxidative stress in cortical neurons.
The reporter cell lines constitutively expressing ODD-luc (human neuroblastoma, SH-SY5Y) were stable for more than one year without significant change in their response to canonical PHD inhibitors such as DFO, dihydroxybenzoate (DHB), dimethyloxalylglycine (DMOG), and ciclopirox (FIG. 1B). In order to verify the specificity of luciferase changes as an assay for PHD activity, several control lines were developed: the control line expressing ODD-luc with proline 564 and 567 mutated to Ala generates luciferase fusion that cannot be degraded and experimentally identifies a ceiling level of ODD-luc protein attainable in these cells. The background signal for the wild-type HIF ODD-luc line (PYIP) corresponds to approximately 5-6% of the ODD-luc levels in the control line AYIA (double mutant P564A/P567A line) (FIG. 2). Treatment with 10 μM ciclopirox results in a 10-fold increase of a background signal for the wild-type ODD-luc reporter (PYIP line), i.e. reaches almost 50% of the threshold value (FIG. 2).
The assay was optimized for HTS format to provide Z values above 0.7. SH-SY5Y-ODD-luc cells were plated into 384—well white flat-bottom plates at 7,000 cell/well in 30 μl of serum and incubated overnight at 37° C., 5% CO2. The next day, compounds were added to a final concentration of 10 μM, plates were incubated for three hours at 37° C., and luciferase activity was measured using SteadyGlo™ reagent (Promega). Each plate had two internal standards, ciclopirox (100%), and DMSO (0%). The reporter activation (%) was calculated as a ratio (L−LDMSO)/(Lciclopirox−LDMSO). Hits were defined as those >25%. HTS of 85,000 compounds was performed at Rockefeller HTS Resource Center. 295 hits from the initial screen have been tested in quadruplicate, 160 were confirmed. Classification into 10 structural clusters has been done manually; 25 hits were singletons.

[2] = tested on: HIF1α protein; assay: HIF immunoblot in SH-SY5Y neuroblastoma cells; type: cell-based, human; conditions: 5 μM, three hours
Procedure: After three hours of 5 μM drug treatment, cells were scraped in ice cold PBS and centrifuged at 1,000×g per 5 min. The pellet was used for nuclear extract preparation with the NE-PER Nuclear and Cytoplasmic Extraction kit (Pierce). After SDS-PAGE followed by transfer to a nitrocellulose membrane, the latter was incubated overnight at 4° C. with primary polyclonal antibody against HIF-1α (Upstate) and monoclonal antibody against β-actin (Sigma) (dilution 1:250 and 1:5000, respectively, in Odyssey Blocking Buffer). Secondary fluorophore conjugated Odyssey IRDye-680 and IRD-800 antibodies (LI-COR Biosciences) were added at 1:20,000 in Odyssey Blocking Buffer, and incubated for one hour at room temperature. Immunoreactive proteins were detected using Odyssey IR imaging system (LI-COR Biosciences).

Oc1cccc2cccnc12 [8-hydroxyquinoline, reference compound]
fold reporter activation over background ([1]; 10 μM): 4-5 fold | activation at 10 µM ([1]; Homo sapiens, 3 h, read-out: reporter activation (%) relative to ciclopirox (100%) and DMSO (0%)): 35 to 45% | HIF1α protein stabilization [2]: not
